Measured values published in patent publication US4321208A, “Preparation of directly iodinated steroid hormones and related compounds” (priority 1976, dated 1982).

What was measured:
[1] = tested on: anti-serum; details: Abraham and Odell; iodinated at positions 2 and 4; cited from earlier work
[2] = tested on: breast cancer tumor tissue; details: injected; patients responding to endocrine treatment vs those who do not respond; cited from earlier work
[3] = tested on: antiserum against estradiol-17 beta; experiment: Radioimmunoassay: competition of nonradioactive estradiol with ^125 I estradiol-17 beta for antiserum; type: binding; details: antiserum 1:10,000 or 1:20,000; ^125 I estradiol-17 beta 70 Ci/mM
Procedure: The procedure of this assay are identical as described by the instant inventor and authors C. […] After incubation, the unbound hormone was removed by charcoal adsorption.

In the case of `C[C@]12CC[C@@H]3c4cc(I)c(O)c(I)c4CC[C@H]3[C@@H]1CC[C@@H]2O`, the binding to anti-serum [1] is given as “unable to bind the anti-serum”.

For `C[C@]12CC[C@@H]3c4ccc(O)cc4CC[C@H]3[C@@H]1CC[C@@H]2O` [tritiated estradiol], the “concentration of tritiated hormone in tumor tissue” value [2] is listed as “usually concentrate more tritiated hormones in their tumor tissue”.

With `C[C@]12CC[C@@H]3c4ccc(O)cc4CC[C@H]3[C@@H]1CC[C@@H]2O` [unlabelled estradiol, estradiol] the “effect of unlabelled estradiol on percent bound ^125 I estradiol” value [3] was “the percent bound ^125 I estradiol decreases”.
